The subject of this experiment is CrkL. As to the kind of experiment: Immunoblotting of CrkL phosphorylation in K562 cells. In kind it is cell-based, Human. The settings on record: 30 min, Y207. How it is done: K562 cells were treated as indicated for 30 min and stat5 phosphorylation at Y694 or CrkL phosphorylation at Y207 were assessed by immunoblotting. Total stat5 or β-actin expression was assessed to ensure equal loading. Pio was used as a negative control and IMT was used as a positive control. Data is one representative of 3 independent experiments.
K562 cells were cultured in 6 well plates and treated as indicated in figures or descriptions of FIG. 1E, FIG. 1G and FIG. 2D-E. Cells were then homogenized in lysis buffer containing 50 mM Tris-HCl, pH 7.5, 150 mM NaCl, 1% NP40, 5 mM EDTA, 1 mM DTT, protease and phosphatase inhibitor cocktails (Sigma) and incubated on ice for 30 min followed by 5 cycles of freeze-thaw. Samples were then centrifuged at 14000 rpm at 4° C. for 30 min. Supernatants were then quantified by Bichinchonic acid (Sigma)-based protein estimation. Equal amount of proteins were solubilized in Laemmli buffer, and were resolved by 10%-12% SDS PAGE and transferred onto PVDF membranes (Millipore; Billerica, Mass.). Membranes were blocked in 5% (w/v) non-fat dried milk powder (Sigma) in PBS containing 0.2% Tween 20 (Sigma). […] Immunoreactivity was detected using a chemiluminescent HRP Substrate (Millipore) in a LAS 4010 Chemi-doc Imager (GE Healthcare, Little Chalfont, UK). […]
A general note: A western blot detects proteins with antibodies after separation by electrophoresis.

`CC(C)/N=c1\cc2n(-c3ccc(Cl)cc3)c3ccccc3nc-2cc1Nc1ccc(Cl)cc1` [CFZ, Clofazimine]: the CrkL phosphorylation entry was “did not alter”.
